# Assay results: patent US7186862B2, “Microbicidal agents on the basis of biphenylbenzamide derivatives” (Bayer CropScience AG, priority 2002, dated 2007)
# How the values were obtained:
# [1] = logP determination by HPLC on reversed-phase column (EEC Directive 79/831); assay type: physicochemical; settings: 0.1% aqueous phosphoric acid/acetonitrile gradient; for chromatographic logP: reversed-phase HPLC column (C18), pH 2.3, reversed-phase C18, 43° C.; for logP (pH 2.3): reversed-phase C18, 43° C.
# Experimental: The logP values given in the tables and preparation examples above are determined in accordance with EEC Directive 79/831 Annex V.48 by HPLC (High Performance Liquid Chromatography) on a reversed-phase column (C18). Temperature: 43° C. The determination is carried out in the acidic range at pH 2.3 using the mobile phases 0.1% aqueous phosphoric acid and acetonitrile; linear gradient from 10% acetonitrile to 90% acetonitrile. Calibration is carried out using unbranched […] (of 3 to 16 carbon atoms) with known logP values (determination of the logP values by the retention time using linear interpolation between two successive alkanones).
# Podosphaera leucotricha = test: Podosphaera test (apple)/protective; assay type: in vivo; settings: 240 h, application rate 100 g/ha, apple plants, protective spray, evaluation 10 days after inoculation, 100% = no infection, read-out: Efficacy in %
# Experimental: (§1) [table] To produce a suitable preparation of active compound, 1 part by weight of active compound is mixed with the stated amounts of solvent and emulsifier, and the concentrate is diluted with water to the desired concentration. To test for protective activity, young plants are sprayed with the preparation of active compound at the stated application rate. After the spray coating has dried on, the plants are inoculated with an aqueous spore suspension of the apple mildew pathogen Podosphaera leucotricha. The plants are then placed in a greenhouse at about 23° C. and a relative atmospheric humidity of about 70%. Evaluation is carried out 10 days after the inoculation. 0% means an efficacy which corresponds to that of the control, whereas an efficacy of 100% means that no infection is observed.
# Sphaerotheca fuliginea = test: Sphaerotheca test (cucumber)/protective; assay type: in vivo; settings: Podosphaera fuliginea, 168 h; application rate 100 g/ha; cucumber plants, protective spray; evaluation 7 days after inoculation; 100% = no infection; read-out: Efficacy in %
# Experimental: as §1, with “of Sphaerotheca fuliginea.” for “of the apple mildew pathogen Podosphaera leucotricha.”, “out 7” for “out 10”
# Venturia inaequalis = test: Venturia test (apple)/protective; assay type: in vivo; settings: 240 h, application rate 100 g/ha, apple plants, protective spray, evaluation 10 days after inoculation, 100% = no infection, read-out: Efficacy in %
# Experimental: as §1, with “conidia” for “spore”, “scab” for “mildew”, “Venturia inaequalis and then remain in an incubation cabin at about 20° C. and 100% relative atmospheric humidity for 1 day.” for “Podosphaera leucotricha.”, “21°” for “23°”, “90%.” for “70%.”
Structure (SMILES),logP (pH 2.3) [1],further results
O=C(Nc1ccccc1-c1ccc(Cl)cc1)c1ccccc1C(F)(F)F [Compound 1],–,chromatographic logP [1]: 3.73; pest or weed control at 100 g/ha (Podosphaera leucotricha): 100%; pest or weed control at 100 g/ha (Sphaerotheca fuliginea): 94%; pest or weed control at 100 g/ha (Venturia inaequalis): 97%
O=C(Nc1ccccc1-c1ccc(Cl)cc1Cl)c1ccccc1C(F)(F)F [Compound 2],–,chromatographic logP [1]: 4; pest or weed control at 100 g/ha (Podosphaera leucotricha): 100%; pest or weed control at 100 g/ha (Sphaerotheca fuliginea): 94%
Cc1cc(Cl)ccc1-c1ccccc1NC(=O)c1ccccc1C(F)(F)F [Compound 3],–,chromatographic logP [1]: 4.14; pest or weed control at 100 g/ha (Podosphaera leucotricha): 99%; pest or weed control at 100 g/ha (Sphaerotheca fuliginea): 100%; pest or weed control at 100 g/ha (Venturia inaequalis): 100%
O=C(Nc1ccccc1-c1ccc(C(F)(F)F)cc1)c1ccccc1C(F)(F)F [Compound 6],4.05,–
O=C(Nc1ccccc1-c1ccc(OC(F)(F)F)cc1)c1ccccc1C(F)(F)F [Compound 8],4.20,–
CSc1ccc(-c2ccccc2NC(=O)c2ccccc2C(F)(F)F)cc1 [Compound 9],3.89,–
O=C(Nc1ccccc1-c1ccc(C(F)(F)F)cc1)c1ccccc1Cl [Compound 11],3.89,–
O=C(Nc1ccccc1-c1cccc(Cl)c1)c1ccccc1Cl [Compound 12],–,chromatographic logP [1]: 3.75; pest or weed control at 100 g/ha (Podosphaera leucotricha): 100%; pest or weed control at 100 g/ha (Venturia inaequalis): 100%
O=C(Nc1ccccc1-c1ccc(OC(F)(F)F)cc1)c1ccccc1Cl [Compound 13],4.08,–
CSc1ccc(-c2ccccc2NC(=O)c2ccccc2Cl)cc1 [Compound 14],3.75,–
O=C(Nc1ccccc1-c1ccc(F)cc1)c1ccccc1Cl [Compound 15],3.40,–
O=C(Nc1ccccc1-c1ccc(Br)cc1)c1ccccc1Br [Compound 16],3.91,–
O=C(Nc1ccccc1-c1ccc(C(F)(F)F)cc1)c1ccccc1Br [Compound 17],3.94,–
O=C(Nc1ccccc1-c1ccc(OC(F)(F)F)cc1)c1ccccc1Br [Compound 19],4.08,–
CSc1ccc(-c2ccccc2NC(=O)c2ccccc2Br)cc1 [Compound 20],3.78,–
O=C(Nc1ccccc1-c1ccc(F)cc1)c1ccccc1Br [Compound 21],3.42,–
Cc1ccccc1C(=O)Nc1ccccc1-c1ccc(Br)cc1 [Compound 22],3.86,–
Cc1ccccc1C(=O)Nc1ccccc1-c1ccc(C(F)(F)F)cc1 [Compound 23],3.86,–
Cc1ccccc1C(=O)Nc1ccccc1-c1cccc(Cl)c1 [Compound 24],3.72,–
Cc1ccccc1C(=O)Nc1ccccc1-c1ccc(OC(F)(F)F)cc1 [Compound 25],4.03,–
CSc1ccc(-c2ccccc2NC(=O)c2ccccc2C)cc1 [Compound 26],3.72,–
O=C(Nc1ccccc1-c1ccc(Br)cc1)c1ccccc1I [Compound 27],4.00,–
O=C(Nc1ccccc1-c1ccc(C(F)(F)F)cc1)c1ccccc1I [Compound 28],4.03,–

Structure (SMILES),logP (pH 2.3) [1],further results
O=C(Nc1ccccc1-c1cccc(Cl)c1)c1ccccc1I [Compound 29],3.86,–
O=C(Nc1ccccc1-c1ccc(OC(F)(F)F)cc1)c1ccccc1I [Compound 30],4.21,–
CSc1ccc(-c2ccccc2NC(=O)c2ccccc2I)cc1 [Compound 31],3.86,–
O=C(Nc1ccccc1-c1ccc(F)cc1)c1ccccc1I [Compound 32],3.55,–
O=C(Nc1ccccc1-c1ccc(Cl)c(F)c1)c1ccccc1C(F)(F)F [Compound 34],–,chromatographic logP [1]: 3.76; pest or weed control at 100 g/ha (Podosphaera leucotricha): 100%; pest or weed control at 100 g/ha (Sphaerotheca fuliginea): 95%; pest or weed control at 100 g/ha (Venturia inaequalis): 100%
"O=C(Nc1ccccc1-c1ccc(F)c(Cl)c1)c1ccccc1C(F)(F)F [Compound 35, N-(3′-chloro-4′-fluoro-1,1′-biphenyl-2-yl)-2-(trifluoromethyl)benzamide]",–,chromatographic logP [1]: 3.81; pest or weed control at 100 g/ha (Podosphaera leucotricha): 100%; pest or weed control at 100 g/ha (Sphaerotheca fuliginea): 93%; pest or weed control at 100 g/ha (Venturia inaequalis): 100%
O=C(Nc1ccccc1-c1ccc(F)cc1F)c1ccccc1C(F)(F)F [Compound 36],3.41,–
O=C(Nc1ccccc1-c1ccc(OC(F)(F)F)c(F)c1)c1ccccc1C(F)(F)F [Compound 37],4.08,–
O=C(Nc1ccccc1-c1ccc(Cl)c(C(F)(F)F)c1)c1ccccc1C(F)(F)F [Compound 38],4.18,–
Cc1ccc(-c2ccccc2NC(=O)c2ccccc2C(F)(F)F)cc1C(F)(F)F [Compound 39],4.18,–
O=C(Nc1ccccc1-c1ccc(OC(F)(F)F)c(C(F)(F)F)c1)c1ccccc1C(F)(F)F [Compound 40],4.41,–
O=C(Nc1ccccc1-c1ccc(F)c(C(F)(F)F)c1)c1ccccc1C(F)(F)F [Compound 41],–,chromatographic logP [1]: 3.9; pest or weed control at 100 g/ha (Podosphaera leucotricha): 94%; pest or weed control at 100 g/ha (Sphaerotheca fuliginea): 100%
"Cc1cc(-c2ccccc2NC(=O)c2ccccc2C(F)(F)F)ccc1Cl [Compound 42, N-(4′-chloro-3′-methyl-1,1′-biphenyl-2-yl)-2-(trifluoromethyl)benzamide]",–,chromatographic logP [1]: 4.18; pest or weed control at 100 g/ha (Podosphaera leucotricha): 100%; pest or weed control at 100 g/ha (Sphaerotheca fuliginea): 100%; pest or weed control at 100 g/ha (Venturia inaequalis): 100%
O=C(Nc1ccccc1-c1cc(Cl)cc(Cl)c1)c1ccccc1C(F)(F)F [Compound 43],4.16,–
O=C(Nc1ccccc1-c1ccc(Cl)c(Cl)c1)c1ccccc1I [Compound 44],4.06,–
O=C(Nc1ccccc1-c1ccc(Cl)cc1F)c1ccccc1C(F)(F)F [Compound 45],3.68,–
O=C(Nc1ccccc1-c1ccc(Cl)cc1)c1ccccc1I [Compound 46],3.74,–
O=C(Nc1ccc(F)cc1-c1ccc(Cl)c(Cl)c1)c1ccccc1C(F)(F)F [Compound 47],4.11,–
O=C(Nc1c(F)cccc1-c1ccc(Cl)c(Cl)c1)c1ccccc1C(F)(F)F [Compound 48],3.81,–
O=C(Nc1ccccc1-c1ccc(Cl)cc1)c1ccccc1Cl [Compound 49],3.64,–
O=C(Nc1ccccc1-c1ccc(Cl)cc1)c1ccccc1Br [Compound 50],3.66,–
"O=C(Nc1ccccc1Br)c1ccccc1C(F)(F)F [IV-1, N-(2-bromophenyl)-2-(trifluoro-methyl)benzamide]",–,chromatographic logP [1]: 2.99
